Source: paper PMC11960969, “Mdga2 deficiency leads to an aberrant activation of BDNF/TrkB signaling that underlies autism-relevant synaptic and behavioral changes in mice” (PLOS Biology, 2025)

Test system: hippocampal proteins
Assay: DIA quantification proteomics, hippocampus of Mdga2+/- vs WT mice
Set-up: species or system mouse
Details: S3 Table, downregulated DEPs; for log2FC: Mdga2+/- vs WT mouse hippocampus (HET-HIP-VS-WT-HIP), SE, pvalue and adj_pvalue in own columns c3-c5; for Class: regulation class of the protein, HET-HIP-VS-WT-HIP
Protocol: The hippocampus of 1.5–2-month-old Mdga2^ +/− male mice and their WT littermate controls was collected and sent to the BGI company for DIA quantification proteomics and data analysis. Briefly, samples were lysed and sonicated. After centrifugation, the supernatant was taken for quantification. Equal amounts of proteins (100 μg) per sample were subjected to trypsin enzymatic hydrolysis. After dryness, 10 μg enzymatic peptides per sample were separated by high-pH fractionation into a total of 10 fractions using high-performance liquid chromatography (HPLC) and freeze-dried. Data-dependent acquisition (DDA) fractions and DIA samples were analyzed by nano-LC–MS/MS. DDA data was identified by Andromeda search engine within MaxQuant. Identified results were used by Spectronaut^TM for spectral library construction. For DIA data, Spectronaut^TM used the constructed spectral library information to complete deconvolution and extraction, and used the mProphet algorithm to complete analytical quality control for obtaining reliable quantitative results. The mass spectrometry proteomics data have been deposited to the ProteomeXchange Consortium via the PRIDE [62] partner repository with the dataset identifier PXD050810. DEPs between comparison groups were identified based on the quantitative results, using the fold change >1.1 and p-value <0.05 as the criteria. After retrieval from the UniProtKB database, identified DEPs were processed for GO analysis by using DAVID (https://david.ncifcrf.gov/home.jsp) and Metascape database (https://metascape.org/gp/index.html).

Substance | log2FC | Class
sp¦A2A791¦ZMYM4_MOUSE | -2.935 | Down
sp¦A2AF47¦DOC11_MOUSE | -1.478 | Down
sp¦P27038¦AVR2A_MOUSE | -1.635 | Down
sp¦P97433¦ARG28_MOUSE | -1.853 | Down
sp¦Q0VGY8¦TANC1_MOUSE | -2.363 | Down
sp¦Q3UQ44¦IQGA2_MOUSE | -1.377 | Down
sp¦Q80YX1¦TENA_MOUSE | -1.6471 | Down
sp¦Q91WG7¦DGKG_MOUSE | -3.157 | Down
